Data reported in US20090081157A1, “Immunostimulatory Combinations for Vaccine Adjuvants” (priority 2006, published 2009).

Legend:
B16-F10 tumors = assay: Peritumoral immunotherapy of established B16-F10 melanoma tumors; format: in vivo, C57BL/6 mice; conditions: figure legends
Protocol: BALB/c mice were injected with 1×10^6 A 20 tumor cells s.c. and […] mice were injected with 1×10^6 B16-F10 tumor cells s.c. After a palpable tumor appeared (>4 mm), 50 μl PBS or plasmid DNA (50 μg) with or without TLR agonist molecules was injected into and around the tumors every other day×5. Tumors were measured every other day.
[…] mice were injected with 1×10^6 B16-F10 tumor cells s.c. After a palpable tumor appeared (>4 mm), 50 μl PBS or plasmid DNA (50 μg) with or without TLR agonist, in the presence or absence of cationic polymer (JetPEI™ Qbiogene Irvine, Calif.) molecules, was injected into and around the tumors every other day×5. Tumors were measured every other day.
Methods: B16-F10 melanoma cells were cultured in RPMI 1640 with 10% fetal bovine serum. Cells were detached with trypsin-EDTA and washed in phosphate-buffered saline (PBS). Then, 10E5 cells in 100 ul PBS were injected subcutaneously over the abdomen of female C57BL/6 female mice, 6- to 9-weeks old (Jackson Laboratories). […]
ATPγS, a nonhydrolyzable form of ATP was added to various agonists (pSP-D-CD40L+CpG+poly(I:C)+ATPe) and the combination was injected intratumorally in to mice presenting established B16F1 melanomas. […] Tumor size was measured every other day and plotted as the product of two orthogonal diameters (i.e., “tumor area”). […]

[1] = intravenous infusion, humans with non-small cell lung cancer; cited from earlier work

| Compound | synergy with CD40L against established B16-F10 tumors (B16-F10 tumors) | maximum tolerated dose [1] |
| --- | --- | --- |
| polyriboinosinic-polyribocytidylic acid [Poly I:C] | synergizes with CD40L | – |
| Nc1ncnc2c1ncn2[C@@H]1O[C@H](COP(=O)(O)OP(=O)(O)OP(=O)(O)O)[C@@H](O)[C@H]1O [ATP, adenosine 5′-triphosphate] | – | 50 ug/kg per minute |
